Data published in ChEMBL document CHEMBL4765274, “The development of advanced structural framework as multi-target-directed ligands for the treatment of Alzheimer's disease” (Eur J Med Chem, 2020).
The source made the active and inactive calls. The rule behind the calls is not given here.

How the values were obtained:
[1] = Inhibition of self-induced amyloid beta (1 to 42 residues) (unknown origin) aggregation by thioflavin T based fluorescence assay; parameters: species or system Homo sapiens; conditions: read-out: IC50
U-87MG ATCC = experiment: Induction of autophagy in human U87 cells stably transfected GFP-LC3 assessed as increase in GFP-LC3 puncta formation at 10 uM after 24 hrs by fluorescence microscopic method; format: functional, cell-based
[2] = Toxicity in Kunming mouse assessed as abnormal behavior up to 5000 mg/kg, po after 14 days; format: organism-based; conditions: in vivo, 336 h, time 14 day
Homo sapiens = organism: Homo sapiens; experiment: (§1) Binding affinity to amyloid beta (1 to 42 residues) (unknown origin) by biolayer interferometry analysis
[3] = as §1; parameters: species or system Homo sapiens
Danio rerio [4] = organism: Danio rerio; experiment: Antialzheimer activity in Alcl3-induced zebra fish AD model assessed as increase in motility at 0.09 ug/ml relative to control; format: functional; conditions: dose 0.09 µg/ml
[5] = Drug metabolism in mouse feces assessed as metabolite formation by UPLC-TOF analysis; format: ADME
SH-SY5Y = experiment: Cytotoxicity against human SH-SY5Y cells assessed as cell viability up to 100 uM after 48 hrs by MTT assay relative to control; format: cell-based
Mus musculus [6] = experiment: Antialzheimer activity in scopolamine-induced Kunming mouse model of memory impairment assessed as latency time at 5 mg/kg , po by step-down passive avoidance test (reference value: 125.65 sec); format: functional
HT-22 [7] = experiment: Activation of ubiquitin-proteasome system in mouse HT-22 cells expressing pEGFP-N1-APP assessed as increase in APP degradation by measuring reduction in GFP level at 2.5 to 20 uM after 24 hrs by fluorescence microscopic method; format: cell-based; conditions: filed as activator, dose 2.5-20 µM
HT-22 [8] = experiment: Activation of ubiquitin-proteasome system in mouse HT-22 cells expressing YFP-CLI assessed as reduction in GFP level at 10 uM after 24 hrs by flow cytometric analysis; format: cell-based; conditions: filed as activator
PC-12 = experiment: Cytotoxicity against rat PC-12 cells assessed as reduction in cell viability up to 100 uM after 48 hrs by MTT assay; format: cell-based; conditions: pc-12, 48 h
[9] = Effective permeability of compound at 100 ug/m by PAMPA-BBB assay; format: ADME; conditions: read-out: Peff
HT-22 [10] = experiment: Cytotoxicity against mouse HT-22 cells assessed as reduction in cell viability after 24 hrs by MTT assay; format: cell-based; conditions: HT-22, 24 h
[11] = Toxicity in 2 dpf zebra fish assessed as edema in kidney at 25 ug/ml after 3 days relative to control; parameters: species or system Danio rerio; conditions: zebrafish, 72 h, at 25 µg/mL, time 3 day
[12] = Toxicity in 2 dpf zebra fish assessed as yolk sac absorption delay at 8.33 ug/ml after 3 days relative to control; parameters: species or system Danio rerio; conditions: zebrafish, 72 h, at 8.33 µg/mL, time 3 day
Cholinesterase [13] = target: Cholinesterase (Equus caballus, UniProt P81908); experiment: Inhibition of equine serum BChE by Ellman's method; format: cell-free
Sequence of Cholinesterase (Equus caballus, UniProt P81908) (P81908 whole entry): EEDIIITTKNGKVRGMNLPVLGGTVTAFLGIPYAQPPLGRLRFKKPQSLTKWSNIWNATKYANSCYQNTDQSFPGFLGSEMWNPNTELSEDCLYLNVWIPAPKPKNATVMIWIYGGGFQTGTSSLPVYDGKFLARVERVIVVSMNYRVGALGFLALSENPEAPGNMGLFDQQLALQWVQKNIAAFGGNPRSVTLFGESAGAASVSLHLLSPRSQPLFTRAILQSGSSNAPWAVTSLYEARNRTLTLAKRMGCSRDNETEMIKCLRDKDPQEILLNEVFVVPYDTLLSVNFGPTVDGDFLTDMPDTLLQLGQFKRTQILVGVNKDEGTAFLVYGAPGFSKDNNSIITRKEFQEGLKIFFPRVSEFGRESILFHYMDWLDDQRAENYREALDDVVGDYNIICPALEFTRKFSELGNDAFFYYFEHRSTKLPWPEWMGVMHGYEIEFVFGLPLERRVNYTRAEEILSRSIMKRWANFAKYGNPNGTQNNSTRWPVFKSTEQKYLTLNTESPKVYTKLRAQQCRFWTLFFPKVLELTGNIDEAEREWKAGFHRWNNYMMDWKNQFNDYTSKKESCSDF

Danio rerio [14] = organism: Danio rerio; experiment: Antialzheimer activity in Alcl3-induced zebra fish AD model assessed as increase dyskinesia recovery rate; format: functional, organism-based
Cholinesterase [15] = target: Cholinesterase (Homo sapiens, UniProt P06276); experiment: Inhibition of human BChE assessed as residual activity at IC50 concentration relative to control
Sequence of Cholinesterase (Homo sapiens, UniProt P06276) (P06276 whole entry): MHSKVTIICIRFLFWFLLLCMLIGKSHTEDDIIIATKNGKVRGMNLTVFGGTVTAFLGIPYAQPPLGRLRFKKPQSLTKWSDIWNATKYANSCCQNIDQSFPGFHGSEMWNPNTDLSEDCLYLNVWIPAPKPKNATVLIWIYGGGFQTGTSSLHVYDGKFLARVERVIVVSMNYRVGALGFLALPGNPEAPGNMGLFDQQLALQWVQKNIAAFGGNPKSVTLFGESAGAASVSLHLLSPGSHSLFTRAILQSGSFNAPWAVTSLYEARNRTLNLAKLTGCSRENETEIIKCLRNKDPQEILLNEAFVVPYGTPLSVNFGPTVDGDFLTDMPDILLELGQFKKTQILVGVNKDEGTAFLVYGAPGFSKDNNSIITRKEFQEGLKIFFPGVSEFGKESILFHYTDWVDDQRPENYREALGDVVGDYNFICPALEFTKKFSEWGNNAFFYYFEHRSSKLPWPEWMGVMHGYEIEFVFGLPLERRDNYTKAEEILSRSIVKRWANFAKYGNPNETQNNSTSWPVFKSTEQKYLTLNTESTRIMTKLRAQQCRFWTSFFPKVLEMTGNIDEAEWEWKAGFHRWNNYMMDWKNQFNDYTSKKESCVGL

[16] = Toxicity in 2 dpf zebra fish assessed as yolk sac absorption delay at 2.78 ug/ml after 3 days relative to control; parameters: species or system Danio rerio; conditions: zebrafish, 72 h, at 2.78 µg/mL, time 3 day
Acetylcholinesterase = Acetylcholinesterase (Homo sapiens, UniProt P22303); experiment: Mixed type inhibition of human AChE using acetylthiocholine as substrate by Line-weaver Burk plot analysis
Sequence of Acetylcholinesterase (P22303 whole entry): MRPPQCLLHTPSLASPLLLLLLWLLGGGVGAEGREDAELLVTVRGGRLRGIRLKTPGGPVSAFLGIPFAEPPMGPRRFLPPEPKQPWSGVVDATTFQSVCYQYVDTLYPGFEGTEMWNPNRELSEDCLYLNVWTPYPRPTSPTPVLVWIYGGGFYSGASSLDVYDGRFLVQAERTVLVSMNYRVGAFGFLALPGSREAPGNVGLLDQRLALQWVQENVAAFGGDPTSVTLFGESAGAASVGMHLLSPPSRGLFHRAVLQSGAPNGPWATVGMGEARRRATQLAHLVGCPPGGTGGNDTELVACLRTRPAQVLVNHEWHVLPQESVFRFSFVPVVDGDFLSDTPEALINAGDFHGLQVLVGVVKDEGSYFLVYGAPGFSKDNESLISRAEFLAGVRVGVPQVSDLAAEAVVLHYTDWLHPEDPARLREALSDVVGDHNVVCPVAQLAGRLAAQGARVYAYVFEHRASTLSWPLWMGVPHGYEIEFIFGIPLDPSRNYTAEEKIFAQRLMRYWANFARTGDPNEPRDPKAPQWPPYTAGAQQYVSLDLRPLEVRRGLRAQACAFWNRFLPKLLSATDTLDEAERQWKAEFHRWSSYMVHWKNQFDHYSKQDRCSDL

[17] = Toxicity in 3 dpf zebra fish assessed as mortality at 1.56 ug/ml (reference value: 0%); parameters: species or system Danio rerio; conditions: zebrafish, at 1.56 µg/mL, read-out: Activity
[18] = Effect on GFP expression in mouse HT-22 cells expressing pEGFP-N1 at 10 uM after 24 hrs by fluorescence microscopic method; format: ADME, cell-based; conditions: ht-22, 24 h
Danio rerio [19] = organism: Danio rerio; experiment: Antialzheimer activity in Alcl3-induced zebra fish AD model assessed as increase in motility at 0.78 ug/ml relative to control; format: functional; conditions: dose 0.78 µg/ml
HT-22 [20] = experiment: Activation of ubiquitin-proteasome system in mouse HT-22 cells expressing pRK5-GFP-Tau P301L mutant assessed as increase in tau degradation by measuring reduction in GFP level after 24 hrs by fluorescence microscopic method; format: cell-based; conditions: filed as activator, dose 2.5-20 µM
[21] = Drug metabolism in human liver microsomes assessed as metabolite formation by UPLC-TOF analysis; format: ADME, Microsome
[22] = Toxicity in 2 dpf zebra fish assessed as change in body shape at 25 ug/ml after 3 days relative to control; parameters: species or system Danio rerio; conditions: zebrafish, 72 h, at 25 µg/mL, time 3 day
Mus musculus [23] = experiment: Antialzheimer activity in scopolamine-induced Kunming mouse model of memory impairment assessed as total mapped in brain hippocampus at 5 mg/kg , po by illumina sequencing method (reference value: 97.13%); format: functional
[24] = Drug metabolism in rat liver microsomes assessed as metabolite formation by UPLC-TOF analysis; format: ADME, Microsome
[25] = Toxicity in 3 dpf zebra fish assessed as mortality at 6.25 ug/ml (reference value: 0%); parameters: species or system Danio rerio; conditions: zebrafish, at 6.25 µg/mL, read-out: Activity
Mus musculus [26] = experiment: Antialzheimer activity in scopolamine-induced Kunming mouse model of memory impairment assessed as Q30 bases ratio (raw data) in brain hippocampus at 5 mg/kg , po by illumina sequencing method (reference value: 93.53%); format: functional
[27] = Toxicity in 2 dpf zebra fish assessed as degenerating muscle within the somites at 25 ug/ml after 3 days relative to control; parameters: species or system Danio rerio; conditions: zebrafish, 72 h, at 25 µg/mL, time 3 day
[28] = Metal chelating activity assessed as Fe2+-compound complex formation in water at 37.5 uM by UV-Visible spectra analysis
Mus musculus [29] = experiment: Antialzheimer activity in scopolamine-induced Kunming mouse model of memory impairment assessed as GC bases ratio (QC data) in brain hippocampus at 5 mg/kg , po by illumina sequencing method (reference value: 53.64%); format: functional
[30] = Toxicity in 2 dpf zebra fish assessed as short or misshapen jaw at 25 ug/ml after 3 days relative to control; parameters: species or system Danio rerio; conditions: zebrafish, 72 h, at 25 µg/mL, time 3 day
[31] = Toxicity in 2 dpf zebra fish assessed as pericardial edema at 25 ug/ml after 3 days relative to control; parameters: species or system Danio rerio; conditions: zebrafish, 72 h, at 25 µg/mL, time 3 day
Mus musculus [32] = experiment: Antialzheimer activity in scopolamine-induced Kunming mouse model of memory impairment assessed as Q30 bases ratio (QC data) in brain hippocampus at 5 mg/kg , po by illumina sequencing method (reference value: 96.67%); format: functional
Danio rerio [33] = organism: Danio rerio; experiment: Antialzheimer activity in amyloid beta (1 to 40 residues)-induced zebra fish AD model assessed as reduction in vascular injury at 0.26 ug/ml relative to control; format: functional; parameters: scale not given: the % may be the effect or the level left; conditions: dose 0.26 µg/ml
[34] = Metal chelating activity assessed as Cu2+-compound complex formation in water at 37.5 uM by UV-Visible spectra analysis
Mus musculus [35] = experiment: Antialzheimer activity in scopolamine-induced Kunming mouse model of memory impairment assessed as latency time at 20 mg/kg , po by step-down passive avoidance test (reference value: 125.65 sec); format: functional
[36] = Effect on GFP expression in mouse HT-22 cells expressing pEGFP-N1 at 10 uM after 24 hrs by flow cytometric analysis; format: ADME, cell-based; conditions: ht-22, 24 h

Structure (SMILES): CCN(CCCCOc1ccc(-c2cc(=O)c3c(O)cc(OCCCCN(CC)Cc4ccccc4)cc3o2)cc1)Cc1ccccc1
- IC50 [1]: 5.8 µM
- Activity (U-87MG ATCC): Active
- Activity [2]: Non-Toxic
- Activity (Homo sapiens): Dose-dependent effect
- Kd [3]: 1.2 µM
- Activity (Danio rerio [4]): 72%
- Drug metabolism [5]: Metabolite_Detected
- Activity (SH-SY5Y): Non-Toxic
- Time (Mus musculus [6]): 261.82 s
- Activity (HT-22 [7]): Active
- Activity (HT-22 [8]): Active
- Activity (PC-12): Non-Toxic
- Papp at 100 ug/m [9]: 1.68 ×10⁻⁶ cm/s
- IC50 (HT-22 [10]): 39.7 µM
- Activity [11]: 66.7%
- Activity [12]: 73.3%
- IC50 (Cholinesterase [13]): 9.6 µM
- Activity (Danio rerio [14]): Dose-dependent effect
- Activity (Cholinesterase [15]): 49.7%
- Activity [16]: 26.7%
- Ki (Acetylcholinesterase): 0.394 µM
- mortality at 1.56 ug/ml [17]: 6.7%
- Activity [18]: Non-Toxic
- Activity (Danio rerio [19]): 84%
- Activity (HT-22 [20]): Dose-dependent effect
- Drug metabolism [21]: Metabolite_Detected
- Activity [22]: 46.7%
- Activity (Mus musculus [23]): 97.39%
- Drug metabolism [24]: Metabolite_Detected
- mortality at 6.25 ug/ml [25]: 100%
- Activity (Mus musculus [26]): 93.58%
- Activity [27]: 33.3%
- Activity [28]: inactive
- Activity (Mus musculus [29]): 59.05%
- Activity [30]: 56.7%
- Activity [31]: 60%
- Activity (Mus musculus [32]): 96.56%
- Activity (Danio rerio [33]): 12%
- Activity [34]: inactive
- Time (Mus musculus [35]): 245.98 s
- Activity [36]: Non-Toxic
